ChEMBL document CHEMBL1201862, “PubChem BioAssay data set” (2004)
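Values below derive from 48-hour exposures of cells grown in 96-well plates, with endpoints linearly interpolated between the two concentrations bracketing the appropriate inhibition level. Here, GI50 denotes the concentration required for 50% inhibition of growth.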 Calls of active or inactive are those of the source. Rule as the data show it: active = GI50 up to about 1.1 µM and inactive = higher.

Key:
Experiment in all cases: NCI-60 cell line screen, 48 h
RPMI-8226 = test system: RPMI-8226
TK-10 = test system: TK-10
SNB-75 = test system: SNB-75
EKVX = test system: EKVX
OVCAR-4 = test system: OVCAR-4
M14 = test system: M14
OVCAR-3 = test system: OVCAR-3
HCT-15 = test system: HCT-15
CAKI-1 = test system: CAKI-1
SNB-19 = test system: SNB-19
LOX IMVI = test system: LOX IMVI
PC-3 = test system: PC-3
NCI-H226 = test system: NCI-H226
HOP-62 = test system: HOP-62
OVCAR-5 = test system: OVCAR-5
HOP-92 = test system: HOP-92
ACHN = test system: ACHN
OVCAR-8 = test system: OVCAR-8
MDA-MB-231 = test system: MDA-MB-231
NCI-H460 = test system: NCI-H460
UO-31 = test system: UO-31
SF-295 = test system: SF-295
HCT-116 = test system: HCT-116
UACC-62 = test system: UACC-62
CCRF-CEM = test system: CCRF-CEM
HT-29 = test system: HT-29
NCI-H522 = test system: NCI-H522
NCI-H23 = test system: NCI-H23
NCI/ADR-RES = test system: NCI/ADR-RES
MCF7 = test system: MCF7
RXF 393 = test system: RXF 393
SN12C = test system: SN12C
DU-145 = test system: DU-145
K562 = test system: K562
MOLT-4 = test system: MOLT-4
KM12 = test system: KM12
BT-549 = test system: BT-549
U-251 = test system: U-251
MDA-N = test system: MDA-N
HL-60 = test system: HL-60
SK-MEL-28 = test system: SK-MEL-28
T47D = test system: T47D
SK-OV-3 = test system: SK-OV-3
Malme-3M = test system: Malme-3M
IGROV-1 = test system: IGROV-1
A498 = test system: A498
Hs-578T = test system: Hs-578T
MDA-MB-435 = test system: MDA-MB-435
SW-620 = test system: SW-620
SK-MEL-5 = test system: SK-MEL-5
SK-MEL-2 = test system: SK-MEL-2
A549 = test system: A549
COLO 205 = test system: COLO 205
786-0 = test system: 786-0
UACC-257 = test system: UACC-257
SF-539 = test system: SF-539
SF-268 = test system: SF-268
SR = test system: SR

SMILES: CC12CCC3c4ccc(O)cc4CCC3C1C/C(=N\O)C2O (stereo not drawn)
- GI50 (RPMI-8226): 85.1 µM (inactive)
- GI50 (TK-10): 45.4 µM (inactive)
- GI50 (SNB-75): 36.8 µM (inactive)
- GI50 (EKVX): 26.8 µM (inactive)
- GI50 (OVCAR-4): > 100 µM (inactive)
- GI50 (M14): > 100 µM (inactive)
- GI50 (OVCAR-3): > 100 µM (inactive)
- GI50 (HCT-15): > 100 µM
- GI50 (CAKI-1): > 100 µM (inactive)
- GI50 (SNB-19): > 100 µM (inactive)
- GI50 (LOX IMVI): > 100 µM (inactive)
- GI50 (PC-3): > 100 µM (inactive)
- GI50 (NCI-H226): > 100 µM (inactive)
- GI50 (HOP-62): > 100 µM (inactive)
- GI50 (OVCAR-5): > 100 µM (inactive)
- GI50 (HOP-92): > 100 µM (inactive)
- GI50 (ACHN): > 100 µM (inactive)
- GI50 (OVCAR-8): > 100 µM (inactive)
- GI50 (MDA-MB-231): > 100 µM (inactive)
- GI50 (NCI-H460): > 100 µM (inactive)
- GI50 (UO-31): > 100 µM (inactive)
- GI50 (SF-295): > 100 µM (inactive)
- GI50 (HCT-116): > 100 µM (inactive)
- GI50 (UACC-62): > 100 µM (inactive)
- GI50 (CCRF-CEM): 42.7 µM (inactive)
- GI50 (HT-29): 77.6 µM (inactive)
- GI50 (NCI-H522): > 100 µM (inactive)
- GI50 (NCI-H23): > 100 µM (inactive)
- GI50 (NCI/ADR-RES): > 100 µM (inactive)
- GI50 (MCF7): > 100 µM (inactive)
- GI50 (RXF 393): > 100 µM (inactive)
- GI50 (SN12C): > 100 µM (inactive)
- GI50 (DU-145): > 100 µM (inactive)
- GI50 (K562): > 100 µM (inactive)
- GI50 (MOLT-4): > 100 µM (inactive)
- GI50 (KM12): 99.5 µM (inactive)
- GI50 (BT-549): > 100 µM (inactive)
- GI50 (U-251): > 100 µM (inactive)
- GI50 (MDA-N): > 100 µM (inactive)
- GI50 (HL-60): 92.9 µM (inactive)
- GI50 (SK-MEL-28): > 100 µM (inactive)
- GI50 (T47D): > 100 µM (inactive)
- GI50 (SK-OV-3): > 100 µM (inactive)
- GI50 (Malme-3M): > 100 µM (inactive)
- GI50 (IGROV-1): > 100 µM (inactive)
- GI50 (A498): > 100 µM (inactive)
- GI50 (Hs-578T): 99.1 µM (inactive)
- GI50 (MDA-MB-435): > 100 µM (inactive)
- GI50 (SW-620): > 100 µM (inactive)
- GI50 (SK-MEL-5): > 100 µM (inactive)
- GI50 (SK-MEL-2): > 100 µM (inactive)
- GI50 (A549): > 100 µM (inactive)
- GI50 (COLO 205): > 100 µM (inactive)
- GI50 (786-0): > 100 µM (inactive)
- GI50 (UACC-257): > 100 µM (inactive)
- GI50 (SF-539): 85.1 µM (inactive)
- GI50 (SF-268): > 100 µM (inactive)
- GI50 (SR): > 100 µM (inactive)
